Laboratory results taken from patent publication US9617229B2, “Phenylmorpholines and analogues thereof” (Research Triangle Institute, priority 2010, dated 2017).
pEC50: −log10 of the molar value. Where a name gives a salt, the structure may show the parent alone.

What was measured:
[1] = biological target: T1, DAT (Rattus norvegicus, UniProt P23977); assay: DA uptake inhibition; assay type: biochemical; details: Table 5
[2] = biological target: T1, DAT; assay: DA release assay (synaptosomes, [3H]MPP+); assay type: biochemical; parameters: the supernatants were retained on ice (synaptosomal preparation); from tissue; host or cells: rat caudate synaptosomes
Protocol: (§1) Rat caudate (for DA release) or whole brain minus cerebellum and caudate (for NE and 5-HT release), was homogenized in ice-cold 10% sucrose containing 1 μM reserpine. Nomifensine (100 nM) and GBR12935 (100 nM) were added to the sucrose solution for [^3H]5-HT release experiments to block any potential [^3H]5-HT reuptake into NE and DA nerve terminals. For the DA release assay, 100 nM desipramine and 100 nM citalopram were added to block [^3H]MPP^+ uptake into NE and 5-HT nerves. For the NE release assay, 50 nM GBR12935 and 100 nM citalopram were added to block [^3H]MPP^+ uptake into DA and 5-HT nerves. After 12 strokes with a Potter-Elvehjem homogenizer, homogenates were centrifuged at 1000×g for 10 min at 0-4° C. and the supernatants were retained on ice (synaptosomal preparation).
(§2) After incubation to steady state, 850 μl of synaptosomes preloaded with [^3H]ligand were added to 12×75 mm polystyrene test tubes that contained 150 μl test drug in uptake buffer plus 1 mg/ml BSA. After 5 min (^3H]5-HT) or 30 min (NE and DA assays) the release reaction was terminated by dilution with 4 ml wash buffer (10 mM Tris-HCl pH 7.4 containing 0.9% NaCl at 25° C.) followed by rapid vacuum filtration over Whatman GF/B filters using a Brandel Harvester. The filters were rinsed twice with 4 ml wash buffer using the Brandel Harvester, and the retained tritium was counted by a Taurus liquid scintillation counter at 40% efficiency after an overnight extraction in 3 ml Cytoscint (ICN).
(§3) In substrate reversal experiments, statistical significance was determined using the Student's t-test.

[3] = biological target: T2, NET (Rattus norvegicus, UniProt Q63380); assay: NE release assay (synaptosomes, [3H]MPP+); assay type: biochemical
T2 construct: the supernatants were retained on ice (synaptosomal preparation); from tissue; host or cells: rat whole brain minus cerebellum and caudate, synaptosomes
Protocol: as §1, §2, §3

[4] = biological target: T3, SERT (Rattus norvegicus, UniProt P31652); assay: 5HT uptake inhibition; assay type: biochemical
[5] = biological target: T3, SERT; assay: 5-HT release assay (synaptosomes, [3H]5-HT); assay type: biochemical; parameters: the supernatants were retained on ice (synaptosomal preparation); from tissue; host or cells: rat whole brain minus cerebellum and caudate, synaptosomes; details: Table 3; 10 μM
Protocol: as §1, §2, §3

[6] = biological target: T4, 5-HT2B receptor (Homo sapiens, UniProt P41595); assay: 5-HT2B activity, agonist; assay type: cell-based
[7] = biological target: T4, 5-HT2B receptor; assay: 5-HT2B activity, antagonist; assay type: cell-based

T2 sequence (Q63380 1-617): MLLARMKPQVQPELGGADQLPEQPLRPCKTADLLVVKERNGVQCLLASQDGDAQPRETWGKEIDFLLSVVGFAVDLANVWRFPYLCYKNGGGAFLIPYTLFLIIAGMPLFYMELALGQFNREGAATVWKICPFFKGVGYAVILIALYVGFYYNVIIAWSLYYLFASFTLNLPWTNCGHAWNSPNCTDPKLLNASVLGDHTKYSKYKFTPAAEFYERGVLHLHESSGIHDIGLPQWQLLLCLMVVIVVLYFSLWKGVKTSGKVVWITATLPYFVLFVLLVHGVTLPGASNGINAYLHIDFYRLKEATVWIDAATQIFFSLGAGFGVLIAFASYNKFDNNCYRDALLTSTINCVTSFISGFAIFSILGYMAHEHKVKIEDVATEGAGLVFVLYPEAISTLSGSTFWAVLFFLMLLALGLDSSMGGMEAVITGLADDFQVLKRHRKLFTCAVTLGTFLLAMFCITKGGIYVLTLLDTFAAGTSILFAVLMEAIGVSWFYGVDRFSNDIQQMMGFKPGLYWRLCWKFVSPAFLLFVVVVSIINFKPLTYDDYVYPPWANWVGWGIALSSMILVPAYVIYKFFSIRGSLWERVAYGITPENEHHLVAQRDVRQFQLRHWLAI
T3 sequence (P31652 whole entry): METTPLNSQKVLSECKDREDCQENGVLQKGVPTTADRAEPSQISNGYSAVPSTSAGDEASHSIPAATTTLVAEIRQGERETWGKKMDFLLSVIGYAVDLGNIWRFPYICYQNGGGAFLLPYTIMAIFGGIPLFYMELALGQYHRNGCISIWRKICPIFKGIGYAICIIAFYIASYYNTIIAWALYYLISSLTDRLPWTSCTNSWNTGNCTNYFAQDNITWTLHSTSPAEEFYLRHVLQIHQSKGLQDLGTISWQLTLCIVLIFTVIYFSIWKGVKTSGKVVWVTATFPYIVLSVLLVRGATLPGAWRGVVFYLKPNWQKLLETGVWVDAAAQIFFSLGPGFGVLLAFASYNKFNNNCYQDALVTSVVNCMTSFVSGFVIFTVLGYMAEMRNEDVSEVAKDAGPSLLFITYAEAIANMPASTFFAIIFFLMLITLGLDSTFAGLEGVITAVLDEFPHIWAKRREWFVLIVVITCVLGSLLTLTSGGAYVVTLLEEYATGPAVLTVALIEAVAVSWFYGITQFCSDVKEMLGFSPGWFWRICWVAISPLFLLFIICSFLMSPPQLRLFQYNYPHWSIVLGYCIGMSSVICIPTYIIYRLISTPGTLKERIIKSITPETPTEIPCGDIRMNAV
T1 sequence (P23977 whole entry): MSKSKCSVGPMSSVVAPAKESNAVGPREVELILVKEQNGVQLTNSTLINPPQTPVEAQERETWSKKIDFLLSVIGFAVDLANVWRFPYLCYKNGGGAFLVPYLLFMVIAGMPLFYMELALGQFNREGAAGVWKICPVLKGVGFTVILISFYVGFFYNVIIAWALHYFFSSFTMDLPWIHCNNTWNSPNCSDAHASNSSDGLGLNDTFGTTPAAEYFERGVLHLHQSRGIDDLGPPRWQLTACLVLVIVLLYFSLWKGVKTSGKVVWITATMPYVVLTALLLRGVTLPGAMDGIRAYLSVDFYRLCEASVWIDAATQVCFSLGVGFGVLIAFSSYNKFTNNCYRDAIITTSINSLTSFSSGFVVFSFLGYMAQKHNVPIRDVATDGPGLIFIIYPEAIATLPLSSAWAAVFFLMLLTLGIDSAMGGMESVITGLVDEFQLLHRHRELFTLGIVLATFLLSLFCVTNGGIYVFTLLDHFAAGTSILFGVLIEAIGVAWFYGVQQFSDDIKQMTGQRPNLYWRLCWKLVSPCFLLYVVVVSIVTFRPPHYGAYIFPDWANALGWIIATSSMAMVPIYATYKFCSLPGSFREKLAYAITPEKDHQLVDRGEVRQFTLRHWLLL
T4 sequence (P41595 whole entry): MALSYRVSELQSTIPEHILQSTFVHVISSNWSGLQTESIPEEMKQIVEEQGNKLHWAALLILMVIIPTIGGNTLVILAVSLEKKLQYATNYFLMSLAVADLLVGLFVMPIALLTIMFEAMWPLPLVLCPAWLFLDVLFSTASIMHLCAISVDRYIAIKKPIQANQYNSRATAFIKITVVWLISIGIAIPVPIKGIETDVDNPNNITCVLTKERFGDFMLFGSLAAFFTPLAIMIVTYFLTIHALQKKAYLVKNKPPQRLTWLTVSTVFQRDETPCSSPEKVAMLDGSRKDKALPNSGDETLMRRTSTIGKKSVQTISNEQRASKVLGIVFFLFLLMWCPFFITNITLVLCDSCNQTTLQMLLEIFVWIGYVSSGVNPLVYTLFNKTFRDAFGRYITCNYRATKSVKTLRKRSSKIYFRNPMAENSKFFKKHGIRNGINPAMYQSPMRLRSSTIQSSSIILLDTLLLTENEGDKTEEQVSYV

## Cc1ccc([C@H]2CN[C@@H](C)CO2)cc1 [PAL 914, (2S,5S)-5-Methyl-2-p-tolyl-morpholine]
[1]
  DA Up (%): 88%

## CC1NCCOC1c1ccc(Cl)c(Cl)c1.Cl (stereo not shown) [PAL 788, 3-Methyl-[(3′,4′-Dichloro)-2-Phenyl]morpholine hydrochloride]
[2]
  DA releaser activity (in words): DA/NE releasers
[2]; Table 4, % EC50 of release
  DA Rel (%): 60%
[3]
  NE releaser activity (in words): DA/NE releasers
[3]; Table 4, % EC50 of release
  NE Rel (%): 98%
[4]
  5HT uptake inhibition (in words): 5HT uptake inhibitors
[4]; Table 4
  5HT Up (%): 95%

## C[C@H]1CO[C@@H](c2ccc(Cl)cc2)CN1 [PAL 899, (2S,5S)-2-(4-Chloro-phenyl)-5-methyl-morpholine]
[1]
  DA Up (%): 90%

## CC1NCCOC1c1ccc2ccccc2c1 (stereo not shown) [PAL 704, 3-Methyl-2-(2′-Naphthyl)morpholine hydrochloride]
[2]
  DA releaser activity (in words): DA/NE releasers
  pEC50: 6.95
[3]
  NE releaser activity (in words): DA/NE releasers
[3]; NE Rel (EC50), Table 4
  pEC50: 6.69
[4]
  5HT uptake inhibition (in words): 5HT uptake inhibitors
  pEC50: 6.98

## Cc1cccc(C2(O)OCCNC2C)c1 (stereo not shown) [PAL589, 3-methyl-2-(3′-tolyl)morpholin-2-ol]
[2]; Table 3, 10 μM
  activation at 10 µM: 28%
[5]
  activation at 10 µM: 56%
[3]; Table 3, 10 μM
  activation at 10 µM: 47%
[6]
  activation at 10 µM: 0%
[7]
  inhibition at 1 µM: 12%
